Source: US20040229895A1, “Tetracyclic benzamide derivatives and methods of use thereof” (Inotek Pharmaceuticals Corporation, priority 2003, published 2004)

Biological target: T1, PARP (Mus musculus, UniProt P11103)
T1 construct: endogenous in cells; host or cells: RAW mouse macrophages
Experiment: PARP activation in peroxynitrite-stimulated cultured macrophages, whole-cell based assay (3H-NAD+ incorporation)
Conditions: RAW mouse macrophages, peroxynitrite-induced PARP activation, 10 min pretreatment; for inhibition at 0.1 µM: 100 nM; for inhibition at 0.3 µM: 300 nM
Description: RAW mouse macrophages were cultured in DMEM medium with high glucose and supplemented with 10% fetal bovine serum. Cells were used at 80% confluence in 12-well plates. Cells were pretreated with various concentrations (100 nM-1 μM) of a Tetracyclic Benzamide Derivative for 10 min. Peroxynitrite, a prototypical oxidant which induces DNA single strand breakage, was used to induce PARP activation. Peroxynitrite was diluted in phosphate buffered saline (PBS) (pH 11.0) and added to the cells in a bolus of 50 μl. Cells were then incubated for 20 min. […] After the 20 min incubation, the cells were spun, the medium was aspirated and the cells were resuspended in 0.5 mL assay buffer (56 mM HEPES pH 7.5, 28 mM KCl, 28 mM NaCl, 2 mM MgCl2, 0.01% w/v digitonin and 0.125 μM NAD^+ and 0.5 μCi/ml ^3H-NAD^+). Following an incubation in assay buffer, (10 min at 37° C.), PARP activity was measured as follows: 200 μl ice cold 50% w/v TCA was added and the samples were incubated for 4 h at 4° C. Samples were then spun (10 min @ 10,000 g) and pellets washed twice with ice cold 5% w/v TCA and solubilized overnight in 250 μl 2% w/v SDS/0.1 N NaOH at 37° C. The contents of the tubes were added to 6.5 mL ScintiSafe Plus scintillation liquid (Fisher Scientific) and radioactivity was determined using a liquid scintillation counter (Wallac, Gaithersburg, Md.).

T1 sequence (P11103 whole entry): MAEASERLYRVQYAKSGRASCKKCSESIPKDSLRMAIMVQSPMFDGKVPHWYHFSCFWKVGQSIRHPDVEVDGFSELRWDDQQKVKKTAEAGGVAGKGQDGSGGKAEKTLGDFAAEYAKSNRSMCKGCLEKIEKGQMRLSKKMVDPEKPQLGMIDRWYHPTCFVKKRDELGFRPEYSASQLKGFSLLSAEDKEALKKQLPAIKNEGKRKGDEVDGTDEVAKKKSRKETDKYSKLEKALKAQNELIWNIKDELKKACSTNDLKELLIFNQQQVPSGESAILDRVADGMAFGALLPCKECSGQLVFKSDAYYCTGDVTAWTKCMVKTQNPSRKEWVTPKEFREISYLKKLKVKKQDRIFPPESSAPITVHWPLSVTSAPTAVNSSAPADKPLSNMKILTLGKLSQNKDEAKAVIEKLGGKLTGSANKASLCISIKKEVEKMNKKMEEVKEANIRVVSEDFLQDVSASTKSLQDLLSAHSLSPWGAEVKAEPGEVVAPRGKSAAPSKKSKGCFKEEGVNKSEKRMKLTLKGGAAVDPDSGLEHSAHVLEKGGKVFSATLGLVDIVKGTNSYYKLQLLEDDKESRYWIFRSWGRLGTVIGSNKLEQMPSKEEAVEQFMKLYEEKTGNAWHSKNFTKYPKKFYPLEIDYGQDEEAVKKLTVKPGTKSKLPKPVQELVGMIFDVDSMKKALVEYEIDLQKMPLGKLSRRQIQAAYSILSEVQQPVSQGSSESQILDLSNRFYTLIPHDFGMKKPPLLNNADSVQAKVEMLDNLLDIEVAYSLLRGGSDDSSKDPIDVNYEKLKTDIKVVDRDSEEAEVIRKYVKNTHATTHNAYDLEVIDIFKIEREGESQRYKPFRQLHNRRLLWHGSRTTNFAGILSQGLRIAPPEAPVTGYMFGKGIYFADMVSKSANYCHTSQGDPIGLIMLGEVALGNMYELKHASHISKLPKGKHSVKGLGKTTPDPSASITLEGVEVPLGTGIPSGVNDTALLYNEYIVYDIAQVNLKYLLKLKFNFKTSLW

SMILES	inhibition at 0.1 µM [%]	inhibition at 0.3 µM [%]	inhibition at 1 µM [%]
Cc1ccc2c(n1)oc1c3ccccc3c(=O)[nH]c21 [Compound 26a, 9-Methyl-6H-11-oxa-6,10-diaza-benzo[a]fluoren-5-one]	36	54	61
O=c1[nH]c2c(c3ccccc13)-c1ccc(S(=O)(=O)NCCCN3CCOCC3)cc1C2 [Compound 11a, 5-Oxo-5,7-dihydro-6H-indeno[2,1-c]isoquinoline-9-sulfonic acid (3-morpholin-4-yl-propyl)-amide]		9	70
CC(=O)Oc1nc2c3ccccc3oc2c2ccccc12 [Compound 16g, Acetic acid 11-oxa-6-aza-benzo[a]fluoren-5-yl ester]	40	66	67
